Marks after values point to notes of the source that are not given here.
System: S180 sarcoma cells
Assay: Growth of KM mice-transplanted S180 sarcoma cells in vivo
Set-up: unit not given here
Details: for Sarcoma volume: V=(1/6)πABC, saline 1.20 ± 0.28
Experimental: S180 sarcoma cells were transplanted intraperitoneally into KM mice for 6-8 days and the ascites aseptically collected. The cell concentration was adjusted to 1×10^7 per ml with 10% FBS RPMI-1640, and 0.2 ml cell suspension was injected through the armpit into each KM mice for developing the sarcoma bearing mice model. […] Intraperitoneal injection of test substances started on the day immediately after tumor transplantation and continued once per day for 20 consecutive days.
On the day after the last test substance administration, the sarcomas were removed from the mice and weighed. The diameters of each sarcoma on the three planes (A, B, C) were measured by a vernier caliper. The volume of the sarcoma was calculated by the formula: V=(⅙)πABC.

[1] = Table 12, 250 μg/kg/day, saline 1.87 ± 0.52
[2] = Table 12, 500 μg/kg/day, saline 1.87 ± 0.52
[3] = Table 11, 10 μg/kg/day i.p. 20 days, saline 5.07 ± 5.46
[4] = Table 11, 50 μg/kg/day i.p. 20 days, saline 5.07 ± 5.46

With VAPE [CMS-010.29] as the compound, how does the Sarcoma volume (Table 12, 250 μg/kg/day) read?
Its Sarcoma volume is 1.02 ± 0.66.

And the Sarcoma weight [1]?
Its Sarcoma weight is 1.24 ± 0.72.

And the Sarcoma volume (Table 12, 500 μg/kg/day)?
The Sarcoma volume was 0.40 ± 0.11.

What about the Sarcoma weight [2] of the same compound?
The Sarcoma weight was 0.55 ± 0.41.

What does the source list for LTEAPLNPK [CMS-010.19]?
Sarcoma volume (Table 12, 250 μg/kg/day): 0.46 ± 0.58; Sarcoma weight [1]: 0.41 ± 0.45*^@; Sarcoma volume (Table 12, 500 μg/kg/day): 0.40 ± 0.42; Sarcoma weight [2]: 0.68 ± 0.68

Which Sarcoma volume (Table 12, 250 μg/kg/day) does the source give for TEAPLNPK [CMS-010.21] here?
The Sarcoma volume was 0.44 ± 0.22.

What about the Sarcoma weight [1] of the same compound?
Its Sarcoma weight is 0.51 ± 0.29.

And the Sarcoma volume (Table 12, 500 μg/kg/day)?
Its Sarcoma volume is 0.44 ± 0.21.

And the Sarcoma weight [2]?
The Sarcoma weight was 0.44 ± 0.22*^@.

For LLTEAPLNPK [CMS-010.17], which Sarcoma volume (Table 12, 250 μg/kg/day) is on record?
Its Sarcoma volume is 0.40 ± 0.24.

And the Sarcoma weight [1]?
Its Sarcoma weight is 0.65 ± 0.41.

What about the Sarcoma volume (Table 12, 500 μg/kg/day) of the same compound?
The Sarcoma volume was 0.55 ± 0.34.

What about the Sarcoma weight [2] of the same compound?
Its Sarcoma weight is 0.91 ± 0.46.

For NPK [CMS-010.31], which Sarcoma weight [3] is on record?
The Sarcoma weight was 1.05 ± 1.28.

And the Sarcoma weight [4]?
Its Sarcoma weight is 1.20 ± 1.60.

What about the Sarcoma volume (Table 12, 250 μg/kg/day) of the same compound?
The Sarcoma volume was 0.25 ± 0.20*^@.

And the Sarcoma weight [1]?
The Sarcoma weight was 0.27 ± 0.19*^@.

And the Sarcoma volume (Table 12, 500 μg/kg/day)?
Its Sarcoma volume is 0.43 ± 0.50.

What about the Sarcoma weight [2] of the same compound?
The Sarcoma weight was 0.78 ± 0.89.

Which Sarcoma volume (Table 12, 250 μg/kg/day) does the source give for VAPEEHPTLLTEAPLNP [CMS-010.03] here?
The Sarcoma volume was 0.31 ± 0.22.

What about the Sarcoma weight [1] of the same compound?
Its Sarcoma weight is 0.68 ± 0.46.

What about the Sarcoma volume (Table 12, 500 μg/kg/day) of the same compound?
The Sarcoma volume was 0.27 ± 0.33*^@.

What about the Sarcoma weight [2] of the same compound?
The Sarcoma weight was 0.33 ± 0.35*^@.

How did the Sarcoma volume (Table 12, 250 μg/kg/day) turn out when VAPEEHP [CMS-010.22] was run?
Its Sarcoma volume is 0.24 ± 0.08*^@.

And the Sarcoma weight [1]?
The Sarcoma weight was 0.28 ± 0.12*^@.

What about the Sarcoma volume (Table 12, 500 μg/kg/day) of the same compound?
Its Sarcoma volume is 0.73 ± 0.87.

And the Sarcoma weight [2]?
Its Sarcoma weight is 0.85 ± 0.73.

Which results are given for `O=P1(N(CCCl)CCCl)NCCCO1` (centres unmarked) [Cyclophosphamide, reference compound]?
Sarcoma volume (Table 12, 40 mg/kg/day): 0.76 ± 0.66; Sarcoma weight (Table 12, 40 mg/kg/day, saline 1.87 ± 0.52): 1.07 ± 0.80

VAPEE [CMS-010.27] was tested. Which Sarcoma volume (Table 12, 250 μg/kg/day) did it give?
Its Sarcoma volume is 0.58 ± 0.58.

And the Sarcoma weight [1]?
Its Sarcoma weight is 0.78 ± 0.68.

What about the Sarcoma volume (Table 12, 500 μg/kg/day) of the same compound?
Its Sarcoma volume is 0.51 ± 0.33.

What about the Sarcoma weight [2] of the same compound?
The Sarcoma weight was 1.05 ± 0.86.

How did the Sarcoma volume (Table 12, 250 μg/kg/day) turn out when VAPEEHPTLLTEAPLN [CMS-010.05] was run?
Its Sarcoma volume is 0.23 ± 0.19*^@.

And the Sarcoma weight [1]?
The Sarcoma weight was 0.56 ± 0.33.

What about the Sarcoma volume (Table 12, 500 μg/kg/day) of the same compound?
The Sarcoma volume was 0.34 ± 0.22.

What about the Sarcoma weight [2] of the same compound?
The Sarcoma weight was 0.47 ± 0.29*^@.

APEEHPTLLTEAPLNPK [CMS-010.02] was tested. Which Sarcoma volume (Table 12, 250 μg/kg/day) did it give?
Its Sarcoma volume is 0.36 ± 0.40.

What about the Sarcoma weight [1] of the same compound?
Its Sarcoma weight is 0.68 ± 0.72.

What about the Sarcoma volume (Table 12, 500 μg/kg/day) of the same compound?
Its Sarcoma volume is 0.65 ± 0.67.

And the Sarcoma weight [2]?
Its Sarcoma weight is 0.97 ± 0.85.

What does the source list for VAPEEHPTLLTEAP [CMS-010.08]?
Sarcoma volume (Table 12, 250 μg/kg/day): 0.20 ± 0.14*^@; Sarcoma weight [1]: 0.38 ± 0.27*^@; Sarcoma volume (Table 12, 500 μg/kg/day): 1.01 ± 0.63; Sarcoma weight [2]: 1.05 ± 0.64

For TLLTEAPLNPK [CMS-010.15], which Sarcoma volume (Table 12, 250 μg/kg/day) is on record?
Its Sarcoma volume is 0.41 ± 0.37.

What about the Sarcoma weight [1] of the same compound?
The Sarcoma weight was 0.45 ± 0.35*^@.

What about the Sarcoma volume (Table 12, 500 μg/kg/day) of the same compound?
The Sarcoma volume was 0.63 ± 0.35.

And the Sarcoma weight [2]?
Its Sarcoma weight is 0.68 ± 0.36.

Which Sarcoma weight [3] does the source give for VALLT [CMS-010.103] here?
The Sarcoma weight was 1.72 ± 1.53.

What about the Sarcoma weight [4] of the same compound?
Its Sarcoma weight is 1.48 ± 1.44.

With VAPEEHPTLLTEAPL [CMS-010.07] as the compound, how does the Sarcoma volume (Table 12, 250 μg/kg/day) read?
The Sarcoma volume was 0.24 ± 0.13*^@.

And the Sarcoma weight [1]?
The Sarcoma weight was 0.32 ± 0.14*^@.

And the Sarcoma volume (Table 12, 500 μg/kg/day)?
The Sarcoma volume was 0.37 ± 0.20.

And the Sarcoma weight [2]?
Its Sarcoma weight is 0.52 ± 0.25.

Which results are given for VAPEEHPTL [CMS-010.18]?
Sarcoma volume (Table 12, 250 μg/kg/day): 0.27 ± 0.20*^@; Sarcoma weight [1]: 0.44 ± 0.31*^@; Sarcoma volume (Table 12, 500 μg/kg/day): 0.58 ± 0.42; Sarcoma weight [2]: 0.59 ± 0.48

EAPLNPK [CMS-010.23] was tested. Which Sarcoma volume (Table 12, 250 μg/kg/day) did it give?
Its Sarcoma volume is 0.21 ± 0.15*^@.

And the Sarcoma weight [1]?
The Sarcoma weight was 0.27 ± 0.18^@.

How did the Sarcoma weight (Table 11, 2 mg/kg/day i.p. 20 days, saline 5.07 ± 5.46) turn out when `COc1cccc2c1C(=O)c1c(O)c3c(c(O)c1C2=O)C[C@@](O)(C(=O)CO)C[C@@H]3O[C@H]1C[C@H](N)[C@H](O)[C@H](C)O1` [Adriamycin, reference compound] was run?
The Sarcoma weight was 1.52 ± 1.75.

Which results are given for VAPEEHPT [CMS-010.20]?
Sarcoma volume (Table 12, 250 μg/kg/day): 0.88 ± 0.77; Sarcoma weight [1]: 1.00 ± 0.76; Sarcoma volume (Table 12, 500 μg/kg/day): 0.54 ± 0.51; Sarcoma weight [2]: 0.59 ± 0.46

Which Sarcoma volume (Table 12, 250 μg/kg/day) does the source give for VAPEEHPTLL [CMS-010.16] here?
The Sarcoma volume was 0.61 ± 0.44.

What about the Sarcoma weight [1] of the same compound?
Its Sarcoma weight is 0.63 ± 0.47.

What about the Sarcoma volume (Table 12, 500 μg/kg/day) of the same compound?
Its Sarcoma volume is 0.92 ± 0.36.

What about the Sarcoma weight [2] of the same compound?
Its Sarcoma weight is 0.99 ± 0.42.

What does the source list for EHPTLLTEAPLNPK [CMS-010.09]?
Sarcoma volume (Table 12, 250 μg/kg/day): 0.37 ± 0.44; Sarcoma weight [1]: 0.45 ± 0.38*^@; Sarcoma volume (Table 12, 500 μg/kg/day): 0.84 ± 0.84; Sarcoma weight [2]: 0.85 ± 0.70

— patent US7718764B2, “Biologically active peptide [sequence] derivatives” (CMS Peptides Patent Holding Company Limited, priority 2004, dated 2010)
